Assay results: patent publication US4293694A, “Pyrido[3,2,1-jk]carbazols” (Otsuka Pharmaceutical Co., Ltd., priority 1979, dated 1981)
Converted amounts (≈) assume the structure as drawn. Read-outs that look alike come from different tables or passages of the source.

Key:
Candida albicans KYU = experiment: Antimicrobial activity, serial dilution method on agar plate; type: cell-based; conditions: read-out: Minimum Inhibitory Concentration (MIC)
Esherichia coli NIHJ = experiment: as above; type: cell-based; conditions: read-out: Minimum Inhibitory Concentration (MIC)
Proteus mirabilis 1287 = experiment: as above; type: cell-based; conditions: read-out: Minimum Inhibitory Concentration (MIC)
Enterbactor cloacae 2 = experiment: as above; type: cell-based; conditions: read-out: Minimum Inhibitory Concentration (MIC)
[1] = test system: Streptococcus faecalis IFO 12580; experiment: as above; type: cell-based; conditions: Enterococcus faecalis, IFO12580, read-out: Minimum Inhibitory Concentration (MIC)
Acute toxicity = conditions: rat, in vivo, rats, dd strain, 18 to 22 g, fasted 12 hours
Procedure: Further, the acute toxicity of the compounds of the present invention having the formula (I) was determined by intravenous administration (i.v.) and oral administration (p.o.) in 5 to 6 groups of rats (dd strain; body weight, 18 to 22 g; 10 rats in each group) which had been fasted for 12 hours prior to the test.

Sarcina lutea ATCC 9341 = experiment: Antimicrobial activity, serial dilution method on agar plate; type: cell-based; conditions: Micrococcus luteus, ATCC9341, read-out: Minimum Inhibitory Concentration (MIC)
[2] = test system: Staphyrococcus aureus Newmann; experiment: as above; type: cell-based; conditions: read-out: Minimum Inhibitory Concentration (MIC)
[3] = test system: Bacillus subtilis ATCC 6633; experiment: as above; type: cell-based; conditions: ATCC6633, read-out: Minimum Inhibitory Concentration (MIC)
[4] = test system: Salmonella typhimurium kh; experiment: as above; type: cell-based; conditions: Salmonella enterica, read-out: Minimum Inhibitory Concentration (MIC)
[5] = test system: Bacillus cereus ATCC 11778; experiment: as above; type: cell-based; conditions: ATCC11778, read-out: Minimum Inhibitory Concentration (MIC)
[6] = test system: Klebsiella pneumoniae ST-101; experiment: as above; type: cell-based; conditions: ST101, read-out: Minimum Inhibitory Concentration (MIC)
[7] = test system: Serratia marcescens ATCC 14756; experiment: as above; type: cell-based; conditions: ATCC14756, read-out: Minimum Inhibitory Concentration (MIC)
[8] = test system: Esherichia coli NIHJ JC-2; experiment: as above; type: cell-based; conditions: read-out: Minimum Inhibitory Concentration (MIC)
[9] = test system: Pseudomonas aeruginosa ATCC 10145; experiment: as above; type: cell-based; conditions: ATCC10145, read-out: Minimum Inhibitory Concentration (MIC)
[10] = test system: Enterbactor aerogenes IFO 12979; experiment: as above; type: cell-based; conditions: read-out: Minimum Inhibitory Concentration (MIC)
Bacillus anthracis = experiment: microbe, parasite or virus in culture; type: cell-based; conditions: read-out: Minimum Inhibitory Concentration (MIC)
[11] = test system: Staphyrococcus aureus FDA 209p; experiment: Antimicrobial activity, serial dilution method on agar plate; type: cell-based; conditions: read-out: Minimum Inhibitory Concentration (MIC)
[12] = test system: Micrococcus flavus ATCC 10240a; experiment: as above; type: cell-based; conditions: ATCC10240A, read-out: Minimum Inhibitory Concentration (MIC)
Streptomyces viridans = experiment: as above; type: cell-based; conditions: read-out: Minimum Inhibitory Concentration (MIC)
[13] = iv, read-out: LD50 (50% lethal dose), i.v.
[14] = po, read-out: LD50 (50% lethal dose), p.o.

| Structure (SMILES) | MIC (Candida albicans KYU) | MIC (Esherichia coli NIHJ) | MIC (Proteus mirabilis 1287) | MIC (Enterbactor cloacae 2) | MIC [1] | LD50 (Acute toxicity; [13]) | LD50 (Acute toxicity; [14]) | MIC (Sarcina lutea ATCC 9341) | MIC [2] | MIC [3] | MIC [4] | MIC [5] | MIC [6] | MIC [7] | MIC [8] | MIC [9] | MIC [10] | MIC (Bacillus anthracis) | MIC [11] | MIC [12] | further results |
| --- | --- | --- | --- | --- | --- | --- | --- | --- | --- | --- | --- | --- | --- | --- | --- | --- | --- | --- | --- | --- | --- |
| O=C(O)c1cn2c3c(cc(F)cc3c1=O)C1CCCCC12 (stereo not drawn) [Compound 1, 2-fluoro-7a,8,9,10,11,11a-hexahydro-4-oxo-4H-pyrido[3,2,1-jk]carbazol-5-carboxylic acid] | > 500 µg/mL | 6.3 µg/mL (≈ 21.9 µM) | 12.5 µg/mL (≈ 43.5 µM) | 3.2 µg/mL (≈ 11.1 µM) | 100 µg/mL (≈ 348 µM) | 130 mg/kg | 5000 mg/kg | 50 µg/mL (≈ 174 µM) | 6.3 µg/mL (≈ 21.9 µM) | 1.6 µg/mL (≈ 5.57 µM) | 6.3 µg/mL (≈ 21.9 µM) | 25 µg/mL (≈ 87 µM) | 3.2 µg/mL (≈ 11.1 µM) | 3.2 µg/mL (≈ 11.1 µM) | 6.3 µg/mL (≈ 21.9 µM) | > 100 µg/mL | 3.2 µg/mL (≈ 11.1 µM) | 3.2 µg/mL (≈ 11.1 µM) | 6.3 µg/mL (≈ 21.9 µM) | 50 µg/mL (≈ 174 µM) | MIC (Streptomyces viridans): 100 µg/mL (≈ 348 µM) |
| O=C(O)c1cn2c3c(cccc3c1=O)C1CCCCC12 (stereo not drawn) [Compound 2, 7a,8,9,10,11,11a-Hexahydro-4-oxo-4H-pyrido[3,2,1-jk]carbazol-5-carboxylic acid] | > 500 µg/mL | 25 µg/mL (≈ 92.8 µM) | 50 µg/mL (≈ 186 µM) | 12.5 µg/mL (≈ 46.4 µM) | > 100 µg/mL | 120 mg/kg | 5000 mg/kg | 100 µg/mL (≈ 371 µM) | 25 µg/mL (≈ 92.8 µM) | 12.5 µg/mL (≈ 46.4 µM) | 25 µg/mL (≈ 92.8 µM) | 100 µg/mL (≈ 371 µM) | 12.5 µg/mL (≈ 46.4 µM) | 12.5 µg/mL (≈ 46.4 µM) | 25 µg/mL (≈ 92.8 µM) | > 100 µg/mL | 12.5 µg/mL (≈ 46.4 µM) | 25 µg/mL (≈ 92.8 µM) | 25 µg/mL (≈ 92.8 µM) | 100 µg/mL (≈ 371 µM) | MIC (Streptomyces viridans): > 100 µg/mL |
| CCOC(=O)c1cn2c3c(cc(F)cc3c1=O)C1CCCCC12 (stereo not drawn) [Compound 3, ethyl 2-fluoro-7a,8,9,10,11,11a-hexahydro-4-oxo-4H-pyrido-[3,2,1-jk]carbazol-5-carboxylate] | > 500 µg/mL | 25 µg/mL (≈ 79.3 µM) | 25 µg/mL (≈ 79.3 µM) | 12.5 µg/mL (≈ 39.6 µM) | > 100 µg/mL | 80 mg/kg | 3000 mg/kg | 100 µg/mL (≈ 317 µM) | 25 µg/mL (≈ 79.3 µM) | 6.3 µg/mL (≈ 20 µM) | 25 µg/mL (≈ 79.3 µM) | 100 µg/mL (≈ 317 µM) | 12.5 µg/mL (≈ 39.6 µM) | 25 µg/mL (≈ 79.3 µM) | 12.5 µg/mL (≈ 39.6 µM) | > 100 µg/mL | 25 µg/mL (≈ 79.3 µM) | 50 µg/mL (≈ 159 µM) | 25 µg/mL (≈ 79.3 µM) | 100 µg/mL (≈ 317 µM) | MIC (Streptomyces viridans): > 100 µg/mL |
| COc1cc2c3c(c1)c(=O)c(C(=O)O)cn3C1CCCCC21 (stereo not drawn) [Compound 4, 2-Methoxy-7a,8,9,10,11,11a-hexahydro-4-oxo-4H-pyrido[3,2,1-jk]carbazol-5-carboxylic acid] | > 500 µg/mL | 12.5 µg/mL (≈ 41.8 µM) | 25 µg/mL (≈ 83.5 µM) | 6.3 µg/mL (≈ 21 µM) | 100 µg/mL (≈ 334 µM) | 130 mg/kg | 4000 mg/kg | 100 µg/mL (≈ 334 µM) | 12.5 µg/mL (≈ 41.8 µM) | 3.2 µg/mL (≈ 10.7 µM) | 12.5 µg/mL (≈ 41.8 µM) | 12.5 µg/mL (≈ 41.8 µM) | 6.3 µg/mL (≈ 21 µM) | 12.5 µg/mL (≈ 41.8 µM) | 12.5 µg/mL (≈ 41.8 µM) | > 100 µg/mL | 6.3 µg/mL (≈ 21 µM) | 6.3 µg/mL (≈ 21 µM) | 12.5 µg/mL (≈ 41.8 µM) | 100 µg/mL (≈ 334 µM) | MIC (Streptomyces viridans): 100 µg/mL (≈ 334 µM) |
| Cc1cc(C)c2c(=O)c(C(=O)O)cn3c2c1C1CCCCC13 (stereo not drawn) [Compound 5, 1,3-Dimethyl-7a,8,9,10,11,11a-hexahydro-4-oxo-4H-pyrido[3,2,1-jk]carbazol-5-carboxylic acid] | > 500 µg/mL | 12.5 µg/mL (≈ 42 µM) | 12.5 µg/mL (≈ 42 µM) | 6.3 µg/mL (≈ 21.2 µM) | > 100 µg/mL | 120 mg/kg | 3000 mg/kg | 100 µg/mL (≈ 336 µM) | 6.3 µg/mL (≈ 21.2 µM) | 6.3 µg/mL (≈ 21.2 µM) | 12.5 µg/mL (≈ 42 µM) | 25 µg/mL (≈ 84.1 µM) | 12.5 µg/mL (≈ 42 µM) | 6.3 µg/mL (≈ 21.2 µM) | 12.5 µg/mL (≈ 42 µM) | > 100 µg/mL | 12.5 µg/mL (≈ 42 µM) | 6.3 µg/mL (≈ 21.2 µM) | 6.3 µg/mL (≈ 21.2 µM) | 100 µg/mL (≈ 336 µM) | MIC (Streptomyces viridans): > 100 µg/mL |
